Source: US4269940A, “Microbiological alkane oxidation process” (priority 1979, dated 1981)
Like-named read-outs stand apart in the source and are kept apart here.

Experiments:
[1] = tested on: P(40) particulate fraction of Methylosinus sp. (CRL-15, NRRL B-11,202); assay: Oxidation of n-alkenes and n-alkanes by P(40) particulate fraction (Table X); assay type: biochemical; details: P(40) fraction, 30° C.
[2] = tested on: cell-free soluble extracts (SADH system); assay: Cofactor requirement of cell-free SADH system (2-butanol to 2-butanone); assay type: biochemical
Method: The clear supernatant contained the SADH activity. […] The reaction was started by the addition of substrate.
Catalytic activity was also assayed by fluorescence spectrophotometry.

[3] = tested on: purified secondary alcohol dehydrogenase; assay: Substrate and electron acceptor specificity of purified yeast secondary alcohol dehydrogenase; assay type: biochemical, Pichia sp. NRRL Y-11,328; details: for Oxidation by the purified yeast enzyme (in words): examined spectrophotometrically
Method: (§1) Large scale cultures of Pichia sp. NRRL Y-11,328 were grown with aeration at 30° C. in a 14-liter New Brunswick f fermentor in a mineral salt medium containing methanol (0.4%, v/v) as the sole carbon source. The cells (200 g., wet weight) were suspended in 50 mm sodium phosphate buffer, pH 7.0, containing 1 mM dithiothreitol (buffer A), and crude extracts were prepared as described previously. To the crude extracts, 18 ml. of protamine sulfate solution [2% solution in 0.1 M tris (hydroxymethyl) aminomethane (tris) base] was added dropwise with continuous stirring. After standing for 30 min., the extracts were centrifuged at 20,000 x g. for 60 min. The supernatant solution was fractioned with solid ammonium sulfate. Extracts were brought to 50% of saturation with respect to ammonium sulfate by addition of 313 g. of the salt per liter of extract. Precipitated proteins was removed by centrifugation, and 137 g. of ammonium sulfate was added per liter of the supernatant liquid to bring it to 70% of saturation. Material precipitating between 50 and 70% of saturation was collected by centrifugation and dissolved in buffer A. This preparation was dialyzed overnight against buffer A, and the dialyzed material was applied to a DEAE-cellulose column (5×40 cm) that had been equilibrated with buffer A. The sample was washed with 200 ml. of buffer A and eluted with 2 liters of buffer A that contained NaCl in a linear gradient running from a concentration of 0 to 0.5 M. Fractions of 15 ml. were collected. Fractions containing secondary alcohol dehydrogenase activity were pooled and were termed DEAE-cellulose eluate. The DEAE-cellulose eluate was concentrated by ammonium sulfate fractionation.
(§2) Secondary alcohol dehydrogenase activity was measured spectrophotometrically at 340 nm with a NAD^+ as an electron acceptor. The reaction mixture, in a total 3.0 ml., contained 50 mM phosphate buffer, pH 8.0, 5μmoles NAD^+, crude extracts, and substrate. The reactions were started by addition of 100 μof 0.1 M substrate and the rate of NAD^+ reduction was measured. Protein concentration was determined by the method of Lowry et al.
The substrate specificity of the purified secondary alcohol dehydrogenase was examined spectrophotometrically.

[4] = tested on: Methylobacter vinelandii (CRL M5Y NRRL B-11,218); assay: Microbiological oxidation of cyclic hydrocarbons by methane-grown washed cells (Example 7); assay type: cell-based; details: aerobic
Method: A 0.5 ml sample of each washed cell suspension (2 mg cells) was put into 10 ml vials at 4° C. which were sealed with a rubber cap. The gaseous phase of the vials was removed with vacuum and then was replaced with a gas mixture of the oxidative substrate (e.g., methane) and oxygen at a 1:1 v/v ratio. […] Samples of product (3 μl) were withdrawn periodically with a microsyringe and the products were analyzed by gas chromatography (ionization flame detector column).
Methylobacter vinelandii (CRL M5Y NRRL B-11,218) was aerobically grown in a methane-containing nutrient medium in the manner described in Example 1 and the methane-grown washed cells were contacted under aerobic conditions with cyclohexane, benzene and toluene.

[5] = tested on: secondary alcohol dehydrogenase (SADH); assay: Substrate specificity and Michaelis constants of purified SADH; assay type: biochemical, Pseudomonas sp. ATCC 21439
Method: Secondary alcohol dehydrogenase (SADH) from an obligate methanol utilizer, Pseudomonas sp. ATCC 21439 was purified as follows. […] 0.05 M sodium phosphate buffer, pH 7.0 with 0.5mM dithiothretol (buffer A) and were disrupted sonically (5×1 min.). The crude extract was separated by centrifugation. The crude extract was heat-treated at 50° C. in a water bath for 10 minutes. The resulting precipitate was removed by centrifugation. To the supernatant solution, 25 ml of protamine sulfate solution (2% solution in 0.1 M Tris base) was added dropwise with continuous stirring. After standing for 30 minutes, the extract was centrifuged. The supernatant solution was fractionated with solid ammonium sulfate. […] This DEAE-cellulose eluate was concentrated by ammonium sulfate fractionation. Material precipitating between 30 and 50% ammonium sulfate saturation was collected by centrifugation and dialyzed overnight against A. This fraction was further washed and filtered through an Amicon unit with XM 50 membrane. The concentrated fraction (6 ml) inside the Amicon unit was applied to an Affi-Gel Blue column (0.8 cm ×18 cm) which had been equilibrated with buffer A for affinity chromatography. The column was washed overnight with buffer A (0.18 ml./min.) and then was eluted with buffer A containing 5 mM NAD. Each 1 ml. fraction was collected.
The purified secondary alcohol dehydrogenase enzyme (SADH) may be used directly for converting C3 -C6 secondary alcohols to the corresponding methyl ketones by the procedures described above; however, a source of NAD^+ must be added to the reaction medium. One can determine the NAD-linked secondary alcohol dehydrogenase activity with a fluorescence spectrophotometer (Perkin Elmer, Model MPF 44A) by following the formation of reduced NAD (Ex 340 nm, Em 460 nm). The assay system (3 ml.) will typically contain: sodium phosphate buffer pH 7.0, 150 μmol; NAD 1.0 μmol; a given amount of enzyme preparation; and 20 μmol secondary alcohol. The reaction is started by the addition of secondary alcohol. One unit of SADH enzyme activity represents the reduction of one nmole NAD per minute.

[6] = tested on: cell suspensions of the strains of C1-utilizers tested; assay: Production of methyl ketones from secondary alcohols by cell suspensions of C1-utilizers (strains tested); assay type: cell-based; details: cell suspensions of C1-utilizers
From the text: The substrate specificity for the oxidation of C3 -C6 secondary alcohols by the strains of C1 -utilizers was studied.

[7] = tested on: purified secondary alcohol dehydrogenase; assay: Stoichiometry of isopropanol and sec-butanol oxidation by the purified secondary alcohol dehydrogenase (Table XXIV); assay type: biochemical, Pichia sp. NRRL Y-11,328; details: substrate 5.7 (isopropanol) or 6.0 (2-butanol) μmoles; for Product formed (acetone or 2-butanone): gas chromatography; for NAD^+ reduced: spectrophotometrically at 340 nm
Method: ^a The estimation of NAD^+ reduced was measured
spectrophotometrically at 340 nm.
^b The estimation of products was detected by gas chromatography as
described in the methods.

[8] = tested on: purified secondary alcohol dehydrogenase; assay: Inhibition of purified yeast secondary alcohol dehydrogenase; assay type: biochemical, Pichia sp. NRRL Y-11,328; details: purified yeast enzyme
Method: as §1, §2
Various primary alcohols not oxidized by secondary alcohol dehydrogenase were tested as potential inhibitors of enzyme activity.

[9] = tested on: P(40) particulate fraction of Methylosinus sp. (CRL-15, NRRL B-11,202); assay: Substrate competition: effect of methane on propylene epoxidizing activity of P(40) fraction (Table XIII); assay type: biochemical; details: gaseous substrate as named
Method: The oxidation of methane and propylene by particulate [(P)40 and (P)80] fractions and soluble [S(80)] fraction was measured at 30° C. by estimating the production of methanol and propylene oxide, respectively. The reaction mixtures contained in 1.0 ml: 150 mM potassium phosphate buffer, pH 7.0 containing 5 mM MgC2, 0.6 ml; 10 μmoles NADH, and cellular fraction.
Reaction mixtures were contained in 10 ml vials at 4° C. Vials were sealed with rubber caps. The gaseous phase in the vials was removed using vacuum and then was replaced with a gas mixture of methane or propylene and oxygen at a 1:1, v/v ratio. Oxidation of other gaseous n-alkanes and n-alkenes was examined as described above. For liquid substrates, 10 μ of substrate was used directly.
The hydroxylation of methane and the epoxidation of propylene by particulate fractions of methane-utilizing bacteria required oxygen and NADH. The question of whether the same or a similar enzyme was involved in the oxidation of both substrates was examined by substrate competition experiments. The experiment consisted of determining the effect of methane on the oxidation of propylene to propylene oxide by the P(40) particulate fraction of Methylosinus sp. (CRL-15, NRRL B-11,202).

[10] = tested on: P(40) particulate fraction of Methylosinus sp. (CRL-15, NRRL B-11,202); assay: Stoichiometry of propylene epoxidation and methane hydroxylation by P(40) fraction (Table XIV); assay type: biochemical; details: 5.0 μmoles substrate; for Product formed: gas chromatography; for O2 consumed: polarographic; for NADH oxidized: spectrophotometric
Method: The particulate P(40) fraction of Methylosinus sp. (CRL-15, NRRL B-11,202) was used to determine the stoichiometry of hydroxylation and epoxidation reactions. The stoichiometry of methane or propylene-dependant NADH oxidation, oxygen consumption and product formation was approximately 1:1:1 Table XIV. This is consistent with methane or propylene oxygenation being catalyzed by a mono-oxygenase.
^a Under identical condition of reaction, the estimation of NADH
oxidized was carried out spectrophotometrically, the estimation of oxygen
consumed was measured polarographically, and the estimation of product
formed was carried out by gas chromatography.

[11] = tested on: cell-free particulate fractions derived from the methylotrophic microorganisms; assay: Inhibition of conversion of C3-C6 n-alkanes to sec. alcohols by cell-free particulate fractions; assay type: biochemical; details: oxygen and NADH
From the text: The conditions for preparing the cell suspensions or the cell-free particulate fractions from methane-grown methylotroph microorganisms is the same as described above.

[12] = tested on: cell-free extracts of strain ATCC 21439; details: 30° C.
Method: The reaction mixtures 3 ml (1.0 mg protein) were incubated at 30°
C. for 10 min. (exp. 1) and for 20 min. (exp. 2) in the presence of 1.0
^a Determined gas chromatographically.
^b Determined fluorescence spectrophotometrically. Endogenous
consumption of NAD was corrected.

C=CCCC [1-Pentene]
Rate of product formation (substrate to epoxide or alcohol) [1]: 0 μ moles/hr/mg of protein

C=C [Ethylene]
Rate of product formation (substrate to epoxide or alcohol) [1]: 1.27 μ moles/hr/mg of protein

NC(=O)c1ccc[n+]([C@@H]2O[C@H](COP(=O)([O-])OP(=O)(O)OC[C@H]3O[C@@H](n4cnc5c(N)ncnc54)[C@H](O)[C@@H]3O)[C@@H](O)[C@H]2O)c1 [NAD, Nicotinamide adenine dinucleotide, reference compound]
Effectiveness as cofactor of the cell-free SADH system [2]: required | Function as electron acceptor/carrier for the purified yeast enzyme [3]: required

Cc1ccccc1 [toluene]
Oxidative conversion [4]: no oxidative conversion was detected

C=CCC [1-Butene]
Rate of product formation (substrate to epoxide or alcohol) [1]: 2.18 μ moles/hr/mg of protein

Cc1cc2nc3c(=O)[nH]c(=O)nc-3n(C[C@H](O)[C@H](O)[C@H](O)COP(=O)(O)OP(=O)(O)OC[C@H]3O[C@@H](n4cnc5c(N)ncnc54)[C@H](O)[C@@H]3O)c2cc1C [FAD, flavin adenine dinucleotide, reference compound]
Effectiveness as cofactor of the cell-free SADH system [2]: not effective | Function as electron acceptor/carrier for the purified yeast enzyme [3]: could not act as electron carrier

C1CCCCC1 [Cyclohexane]
Conversion rate to cyclohexanol [4]: 1.5 μmoles/2 hr./mg. protein

C=CC=C [Butadiene]
Rate of product formation (substrate to epoxide or alcohol) [1]: 0.63 μ moles/hr/mg of protein

NC(=O)c1ccc[n+]([C@@H]2O[C@H](COP(=O)([O-])OP(=O)(O)OC[C@H]3O[C@@H](n4cnc5c(N)ncnc54)[C@H](OP(=O)(O)O)[C@@H]3O)[C@@H](O)[C@H]2O)c1 [NADP, reference compound]
Effectiveness as cofactor of the cell-free SADH system [2]: not effective | Function as electron acceptor/carrier for the purified yeast enzyme [3]: could not act as electron carrier

CC(C)O [2-propanol]
Oxidation by purified SADH (in words) [5]: highest | Rate of oxidation of secondary alcohols to methyl ketones [6]: higher rates | Product formed (acetone or 2-butanone) [7]: 5.5 µmol | NAD^+ reduced [7]: 5.4 µmol | Oxidation by the purified yeast enzyme (in words) [3]: catalyzed the oxidation

C[n+]1c2ccccc2nc2ccccc21 [phenazine methosulfate, reference compound]
Effectiveness as cofactor of the cell-free SADH system [2]: not effective | Function as electron acceptor/carrier for the purified yeast enzyme [3]: could not act as electron carrier

NC(=O)C1=CN([C@@H]2O[C@H](COP(=O)(O)OP(=O)(O)OC[C@H]3O[C@@H](n4cnc5c(N)ncnc54)[C@H](OP(=O)(O)O)[C@@H]3O)[C@@H](O)[C@H]2O)C=CC1 [NAD(P)H]
Effectiveness as cofactor of the cell-free SADH system [2]: not effective

N[C@@H](CCC(=O)N[C@@H](CS)C(=O)NCC(=O)O)C(=O)O [glutathione]
Effectiveness as cofactor of the cell-free SADH system [2]: not effective | Inhibition of secondary alcohol dehydrogenase activity (in words) [8]: strongly inhibited

c1ccccc1 [benzene]
Oxidative conversion [4]: no oxidative conversion was detected

C [Methane]
Propylene oxide produced [9]: 0 μmoles/hr/mg. protein | Product formed [10]: 4.2 µmol | O2 consumed [10]: 4.6 µmol | NADH oxidized [10]: 4.8 µmol | Rate of product formation (substrate to epoxide or alcohol) [1]: 4.8 μ moles/hr/mg of protein

CC [Ethane]
Rate of product formation (substrate to epoxide or alcohol) [1]: 3.2 μ moles/hr/mg of protein

C=CC [Propylene]
Propylene oxide produced [9]: 4.3 μmoles/hr/mg. protein | Inhibition of conversion of C3-C6 n-alkanes to sec. alcohols (in words) [11]: inhibit | Inhibition of conversion of C3-C6 n-alkanes to sec. alcohols (in words) ([11]; listed as propylene): inhibited | Product formed [10]: 4.5 µmol | O2 consumed [10]: 4.8 µmol | NADH oxidized [10]: 5.0 µmol | Rate of product formation (substrate to epoxide or alcohol) [1]: 4.1 μ moles/hr/mg of protein

CCC(C)O (stereo not shown) [2-butanol]
Oxidation by purified SADH (in words) [5]: highest | Rate of oxidation of secondary alcohols to methyl ketones [6]: higher rates | Product formed (acetone or 2-butanone) [7]: 5.7 µmol | NAD^+ reduced [7]: 5.9 µmol | 2-Butanol consumed ([12]; experiment 1, 10 min.): 260 nmol | 2-Butanol consumed ([12]; experiment 2, 20 min.): 530 nmol | NAD consumed ([12]; experiment 2, 20 min.): 540 nmol | Oxidation by the purified yeast enzyme (in words) [3]: catalyzed the oxidation

O=C1C(Cl)=CC(=Nc2ccc(O)cc2)C=C1Cl [dichlorophenol indophenol, reference compound]
Effectiveness as cofactor of the cell-free SADH system [2]: not effective | Function as electron acceptor/carrier for the purified yeast enzyme [3]: could not act as electron carrier
